# Results taken from PMC8979682, “Synthesis, Antioxidant, and Antidiabetic Activities of Ketone Derivatives of Succinimide” (Evidence-based Complementary and Alternative Medicine : eCAM, 2022).
# Tests used:
# [1] = target: α-amylase; assay: in vitro α-amylase inhibition; assay type: biochemical
# Procedure: The starch solution was added, following incubation of the mixture, and the reaction mixture thus prepared was kept in water bath at 100°C for some time. Microplate reader measured the intensity of the color at 656 nm. Following formula was used to determine percentage inhibition:(3) percent inhibition=absorbancecontrol−absorbancesample/absorbancecontrol×100.
# [2] = ABTS scavenging activity; assay type: biochemical
# Procedure: For the determination of the antioxidant activity of the synthesized compounds, the previously reported method for ABTS scavenging activity was used with slight modification. The stock solution of 2.4 mM of potassium per sulfate solution and 7 mM ABTS solution was prepared by mixing them in equal volumes for 16 h. The stock solution thus prepared was diluted using methyl alcohol to give absorption of 0.7 ± 0.02 units when studied at the wavelength of 734 nm using a spectrophotometer. Fresh ABTS solution was prepared for each ABTS scavenging assay. About 150 μL of the ABTS working solution was added to 50 μL of synthesized compounds and kept in darkness for 10 min. […] Methanol was used as blank, and standard ascorbic acid was run at the same time. The absorbance was calculated utilizing a microplate reader at 734 nm.
# [3] = test system: diabetic mice (by alloxan); assay: antidiabetic activity in diabetic mice (by alloxan); assay type: in vivo
# Procedure: Alloxan was used for the induction of diabetes mellitus according to reported procedure. Recently prepared Alloxan (ALX) was injected intraperitoneally to animals, fasting for 16 h, at a single dose of (150 mg/kg). […] Only diabetic animals, having random blood glucose level more than 200 mg/dl, were selected for studies. All the experimental procedure were approved from the ethical committee department of pharmacy, University of Swabi via letter No; UOS-06/2021.
# A total of 30 animals were used to determine the hypoglycemic effect of the synthesized derivatives of succinimide. The experimental animals were segregated in six groups […], having five (5) animals in each group. Group I was designated as normal group and was given normal saline I/P only. Group II was given Tween 80, and Group III was given standard drug (glibenclamide) after the induction of diabetes. Group IV, Group V, and Group VI were given the various doses of synthesized compounds, respectively. […]
# [4] = target: α-glucosidase; assay: in vitro α-glucosidase inhibition; assay type: biochemical
# Procedure: For in vitro α-glucosidase activity, samples were prepared by adding glucopyranoside to phosphate buffer solvent, and different concentrations of the synthesized compounds (31.25, 62.5, 125, 250, and 500 µg/ml), respectively, were added to this solution and then the enzyme glucosidase in distilled water (0.5 µg/ml) was also added to the above mixture. The reaction mixture thus prepared was subjected to incubation at 37°C for 20 minutes. The reaction was halted by adding HCl after incubation of the mixture. The intensity of the color was determined at 540 nm by spectrophotometer, and the formula given below was used for the determination of percent inhibition:(2) percent inhibition=absorbancecontrol−absorbancesample/absorbancecontrol×100.
# [5] = DPPH scavenging activity; assay type: biochemical
# Procedure: The antioxidant assay of the synthesized compounds was conducted following the previously reported method. A freshly prepared DPPH solution (50 μL of 1.0 × 10^−3 M) was added in methyl alcohol. Methanol was used as a control in this experiment. The prepared mixture was subjected to incubation at 25°C for 30 min. A decrease in the DPPH free radical concentration was calculated using a spectrophotometer at a wavelength of 517 nm. After incubation ascorbic acid was used as a positive control. The antioxidant activity was determined as a percent (%) of inhibition using the formula given:(1) percent inhibition=absorbancecontrol−absorbancesample/absorbancecontrol×100.
# [6] = test system: mice; assay: oral glucose tolerance test (OGTT); assay type: in vivo; details: glucose 2 g/kg orally
# Procedure: To perform OGTT mice fasted overnight were used including both control and treated mice. Glucose was administered orally at the dose of 2 g/kg against glibenclamide as standard drug. After administration of glucose, blood glucose level was calculated at time intervals of 0, 30, 60, and 120 min for assessment of the impact of exogenously given D-glucose on treated mice. OGTT was carried out 5 days before the completion of the study.
# To perform OGTT, mice fasted overnight were used including both control and treated mice. Glucose was administered orally at the dose of 2 g/kg against glibenclamide as a standard drug. After administration of glucose, blood glucose level was calculated at time intervals of 0, 30, 60, and 120 min for assessment of the impact of exogenously given D-glucose on treated mice.
structure (smiles),measurement,setting,value
"O=C1CCCCC1C1CC(=O)N(c2ccc(Br)cc2)C1=O (stereo not drawn) [BW3, (4-Bromophenyl)-3-(2-Oxocyclohexyl) Pyrrolidine-2,5-Dione]",IC50 (α-amylase),[1],18.20 µg/mL
same,% inhibitions (α-amylase),[1]; 31.25 µg/ml,54.67 ± 0.35^∗∗∗ %
same,% inhibitions (α-amylase),[1]; 62.50 µg/ml,62.16 ± 0.12^∗∗∗ %
same,% inhibitions (α-amylase),[1]; 125 µg/ml,67.62 ± 0.03^∗∗∗ %
same,% inhibitions (α-amylase),[1]; 250 µg/ml,71.36 ± 1.15^∗∗∗ %
same,% inhibitions (α-amylase),[1]; 500 µg/ml,75.35 ± 0.89^∗∗∗ %
same,IC50 (ABTS),[2],36.82 µg/mL
same,(%) ABTS inhibitions,[2]; 31.25 µg/ml,48.42 ± 0.43^ns %
same,(%) ABTS inhibitions,[2]; 62.50 µg/ml,53.33 ± 0.66^∗ %
same,(%) ABTS inhibitions,[2]; 125 µg/ml,58.40 ± 0.82^∗∗∗ %
same,(%) ABTS inhibitions,[2]; 250 µg/ml,64.90 ± 0.45^∗∗∗ %
same,(%) ABTS inhibitions,[2]; 500 µg/ml,70.56 ± 1.06^∗∗∗ %
same,Change in body weight,[3]; dose 31.25 μg/kg,−8.4 Gm
same,Decrease in blood glucose after 15 days,[3]; dose 31.25 μg/kg,-39 mg/dL
same,"Blood glucose level, 0 day",[3]; dose 31.25 μg/kg,439 mg/dL
same,"Blood glucose level, 4th day",[3]; dose 31.25 μg/kg,446 mg/dL
same,"Blood glucose level, 7th day",[3]; dose 31.25 μg/kg,457 mg/dL
same,"Blood glucose level, 10th day",[3]; dose 31.25 μg/kg,468 mg/dL
same,"Blood glucose level, 15th day",[3]; dose 31.25 μg/kg,478 mg/dL
same,Change in body weight,[3]; dose 62.5 μg/kg,−6.2 Gm
same,Decrease in blood glucose after 15 days,[3]; dose 62.5 μg/kg,-56 mg/dL
same,"Blood glucose level, 0 day",[3]; dose 62.5 μg/kg,443 mg/dL
same,"Blood glucose level, 4th day",[3]; dose 62.5 μg/kg,465 mg/dL
same,"Blood glucose level, 7th day",[3]; dose 62.5 μg/kg,478 mg/dL
same,"Blood glucose level, 10th day",[3]; dose 62.5 μg/kg,493 mg/dL
same,"Blood glucose level, 15th day",[3]; dose 62.5 μg/kg,499 mg/dL
same,Change in body weight,[3]; dose 125 μg/kg,+5.3 Gm
same,Decrease in blood glucose after 15 days,[3]; dose 125 μg/kg,-29 mg/dL
same,"Blood glucose level, 0 day",[3]; dose 125 μg/kg,387 mg/dL
same,"Blood glucose level, 4th day",[3]; dose 125 μg/kg,437 mg/dL
same,"Blood glucose level, 7th day",[3]; dose 125 μg/kg,430 mg/dL
same,"Blood glucose level, 10th day",[3]; dose 125 μg/kg,424 mg/dL
same,"Blood glucose level, 15th day",[3]; dose 125 μg/kg,416 mg/dL
same,Change in body weight,[3]; dose 250 μg/kg,−5.1 Gm
same,Decrease in blood glucose after 15 days,[3]; dose 250 μg/kg,35 mg/dL
same,"Blood glucose level, 0 day",[3]; dose 250 μg/kg,431 mg/dL
same,"Blood glucose level, 4th day",[3]; dose 250 μg/kg,419 mg/dL
same,"Blood glucose level, 7th day",[3]; dose 250 μg/kg,411 mg/dL
same,"Blood glucose level, 10th day",[3]; dose 250 μg/kg,403 mg/dL
same,"Blood glucose level, 15th day",[3]; dose 250 μg/kg,396 mg/dL
same,Change in body weight,[3]; dose 500 μg/kg,+2.5 Gm
same,Decrease in blood glucose after 15 days,[3]; dose 500 μg/kg,49 mg/dL
same,"Blood glucose level, 0 day",[3]; dose 500 μg/kg,430 mg/dL
same,"Blood glucose level, 4th day",[3]; dose 500 μg/kg,420 mg/dL
same,"Blood glucose level, 7th day",[3]; dose 500 μg/kg,401 mg/dL
same,"Blood glucose level, 10th day",[3]; dose 500 μg/kg,387 mg/dL
same,"Blood glucose level, 15th day",[3]; dose 500 μg/kg,381 mg/dL
same,IC50 (α-glucosidase),[4],12.15 µg/mL
same,% inhibitions (α-glucosidase),[4]; 31.25 µg/ml,57.47 ± 0.56^∗∗∗ %
same,% inhibitions (α-glucosidase),[4]; 62.50 µg/ml,63.28 ± 0.57^∗∗∗ %
same,% inhibitions (α-glucosidase),[4]; 125 µg/ml,67.90 ± 0.96^∗∗∗ %
same,% inhibitions (α-glucosidase),[4]; 250 µg/ml,72.08 ± 0.47^∗∗∗ %
same,% inhibitions (α-glucosidase),[4]; 500 µg/ml,77.85 ± 2.24^∗∗∗ %
same,IC50 (DPPH),[5],15.93 µg/mL
same,(%) DPPH inhibitions,[5]; 31.25 µg/ml,57.69 ± 0.77^∗∗∗ %
same,(%) DPPH inhibitions,[5]; 62.50 µg/ml,66.67 ± 0.61^∗∗∗ %
same,(%) DPPH inhibitions,[5]; 125 µg/ml,71.79 ± 0.63^∗∗ %
same,(%) DPPH inhibitions,[5]; 250 µg/ml,76.90 ± 0.48^∗ %
same,(%) DPPH inhibitions,[5]; 500 µg/ml,83.03 ± 0.48^∗ %
same,"OGTT blood glucose, 0 minutes",[6]; 0 minutes,156.2 mg/dL
same,"OGTT blood glucose, 30 minutes",[6]; 30 minutes,174.1 mg/dL
same,"OGTT blood glucose, 60 minutes",[6]; 60 minutes,196.3 mg/dL
same,"OGTT blood glucose, 120 minutes",[6]; 120 minutes,145.4 mg/dL
